{
  "source": "patent US20020132812A1",
  "about": "“Oral hypoglycaemic agents” (priority 2000, published 2002)",
  "test_system": "isolated perfused rat pancreas",
  "test": "Insulin release from isolated perfused rat pancreas",
  "protocol": "The effect of the compounds of the invention on the insulin release from isolated perfused rat pancreas can be investigated as exemplified below with the title compound of Example 2 (compound (Ex 2). In the example described, the investigation is carried out at 2.8 mM and 8.3 mM glucose.\nMale Sprague Dawley rats (body weight around 300 g) were anaesthetised with a mixture of Hypnorm® (Janssen Pharma) and Dormicum® (Roche) and the pancreas was cannulated and isolated a described by Sturis et al., Am. J. Physiol. 269, E786-E792, 1995. The organ was placed at 37° C. in a humidified perfusion chamber and perfused with a […] gassed bicarbonated Krebs Ringer, 4% Dextran buffer from a pump delivering 71% of the total volume and from a pump delivering 29% volume of the same buffer with added BSA (0.2% final concentration) and glucose (2.8 mM or 8.3 mM final concentration). The 29% pump also delivered compund (Ex 2) at 10^−5 M in the interval t=20-40 min and at 10^−4 M in the interval t=60-80 min. The pancreata were acclimatised for 20 min before start of sampling at 1 fraction of ca 1900 μl/min for 100 min. Aliquots of 200 μl were frozen away at −20° C. for subsequent insulin ELISA using guinea pig anti-insulin antibodies. The results are shown in FIG. 7 and are expressed as fmol insulin released per pancreas per min. Each plot represents one pancreas, except 8.3 mM glucose alone mean of n=2. […] In the pancreas infused with 8.3 mM glucose and compound (Ex 2) there was an initial noise in the interval t=0-20 min which was due to a mechanical problem with the tubing. […] When 10^−4 M compound (Ex 2) was added at t=60 min there was a classic first-phase insulin release peaking at 3000 fmol/min, followed by second-phase release. […] We have evidence that non-reversal may be due to the low BSA concentration (0.2%) in the perfusate.\nIn the pancreas perfused with compound (Ex 2) at 2.8 mM glucose, the insulin secretion was only about 10% of that seen at 8.3 mM glucose (max. 250 fmol/min) with 10^−4 M compound (Ex 2) while the control pancreas secretion was flat at ca 20 fmol/min.",
  "data": [
    {"smiles": "COc1cccc(C(CC2=NCCN2)c2ccccn2)c1", "note": "(single isomer, unassigned; (-)) [compound (Ex 2), (−)-2-(2-(4,5-Dihydro-1H-imidazol-2-yl)-1-(3-methoxyphenyl)ethyl)pyridine]", "values": [
      {"measurement": "insulin secretion, max.", "setting": "2.8 mM glucose, 10^-4 M compound, control pancreas ca 20 fmol/min", "result": 250, "unit": "fmol/min"},
      {"measurement": "first-phase insulin release, peak", "setting": "8.3 mM glucose, 10^-4 M compound added at t=60 min, 8.3 mM glucose alone 300 up to ca 700 fmol/min", "result": 3000, "unit": "fmol/min"},
      {"measurement": "effect on insulin secretion (in words)", "setting": "8.3 mM glucose, 10^-5 M compound, t=20-40 min", "result": "small increase in insulin secretion"},
      {"measurement": "insulin secretion at 2.8 mM glucose as share of that seen at 8.3 mM glucose", "setting": "10^-4 M compound", "result": "about 10%"}
    ]}
  ]
}
